Data: ChEMBL document CHEMBL3822373, “An evolved oxazolidinone with selective potency against Mycobacterium tuberculosis and gram positive bacteria” (2016)
Calls of active or inactive are those of the source. The rule behind the calls is not given here.

Tested on: Mycobacterium tuberculosis
Assay: Antibacterial activity against Mycobacterium tuberculosis H37Rv assessed as frequency of spontaneous resistant mutant at 5 and 10 times MIC90 measured after 5 weeks
Assay type: functional, organism-based

Q: How did the Activity turn out when `CC(=O)NC[C@H]1CN(c2ccc3c(c2)Oc2ccccc2O3)C(=O)O1` was run?
A: inactive
